Laboratory results taken from ChEMBL document CHEMBL4373641, “Synthesis and direct comparison of the anticancer activities of phomopsolides D and E and two 7-oxa-/7-aza-analogues” (Medchemcomm, 2019).

Legend:
Type in all cases: functional, cell-based
MDA-MB-468 = experiment: Antiproliferative activity against human MDA-MB-468 cells assessed as reduction in cell viability after 48 hrs by SRB assay; settings: MDA-MB-468, 48 h
OVCAR-3 = experiment: Antiproliferative activity against human OVCAR3 cells assessed as reduction in cell viability after 48 hrs by SRB assay; settings: OVCAR-3, 48 h
786-0 = experiment: Antiproliferative activity against human 786-0 cells assessed as reduction in cell viability after 48 hrs by SRB assay; settings: 786-0, 48 h
SF-539 = experiment: Antiproliferative activity against human SF539 cells assessed as reduction in cell viability after 48 hrs by SRB assay; settings: SF-539, 48 h
RXF 393 = experiment: Antiproliferative activity against human RXF393 cells assessed as reduction in cell viability after 48 hrs by SRB assay; settings: RXF 393, 48 h
UO-31 = experiment: Antiproliferative activity against human UO31 cells assessed as reduction in cell viability after 48 hrs by SRB assay; settings: UO-31, 48 h
CAKI-1 = experiment: Antiproliferative activity against human CAKI-1 cells assessed as reduction in cell viability after 48 hrs by SRB assay; settings: CAKI-1, 48 h
MDA-MB-231 = experiment: Antiproliferative activity against human MDA-MB-231 cells assessed as reduction in cell viability after 48 hrs by SRB assay; settings: MDA-MB-231, 48 h
SW-620 = experiment: Antiproliferative activity against human SW620 cells assessed as reduction in cell viability after 48 hrs by SRB assay; settings: SW-620, 48 h
SK-OV-3 = experiment: Antiproliferative activity against human SKOV3 cells assessed as reduction in cell viability after 48 hrs by SRB assay; settings: SK-OV-3, 48 h
HCT-116 = experiment: Antiproliferative activity against human HCT116 cells assessed as reduction in cell viability after 48 hrs by SRB assay; settings: HCT-116, 48 h
HCT-15 = experiment: Antiproliferative activity against human HCT15 cells assessed as reduction in cell viability after 48 hrs by SRB assay; settings: HCT-15, 48 h
IGROV-1 = experiment: Antiproliferative activity against human IGROV1 cells assessed as reduction in cell viability after 48 hrs by SRB assay; settings: IGROV-1, 48 h
CCRF-CEM = experiment: Antiproliferative activity against human CCRF-CEM cells assessed as reduction in cell viability after 48 hrs by SRB assay
NCI/ADR-RES = experiment: Antiproliferative activity against human NCI/ADR-RES cells assessed as reduction in cell viability after 48 hrs by SRB assay
SN12C = experiment: Antiproliferative activity against human SN12C cells assessed as reduction in cell viability after 48 hrs by SRB assay
RPMI-8226 = experiment: Antiproliferative activity against human RPMI8226 cells assessed as reduction in cell viability after 48 hrs by SRB assay; settings: RPMI-8226, 48 h
SR = experiment: Antiproliferative activity against human SR cells assessed as reduction in cell viability after 48 hrs by SRB assay
A498 = experiment: Antiproliferative activity against human A498 cells assessed as reduction in cell viability after 48 hrs by SRB assay; settings: A498, 48 h
U-251 = experiment: Antiproliferative activity against human U251 cells assessed as reduction in cell viability after 48 hrs by SRB assay; settings: U-251, 48 h
SF-295 = experiment: Antiproliferative activity against human SF295 cells assessed as reduction in cell viability after 48 hrs by SRB assay; settings: SF-295, 48 h
OVCAR-8 = experiment: Antiproliferative activity against human OVCAR8 cells assessed as reduction in cell viability after 48 hrs by SRB assay; settings: OVCAR-8, 48 h
SF-268 = experiment: Antiproliferative activity against human SF268 cells assessed as reduction in cell viability after 48 hrs by SRB assay; settings: SF-268, 48 h
COLO 205 = experiment: Antiproliferative activity against human COLO205 cells assessed as reduction in cell viability after 48 hrs by SRB assay; settings: COLO 205, 48 h
MDA-MB-435 = experiment: Antiproliferative activity against human MDA-MB-435 cells assessed as reduction in cell viability after 48 hrs by SRB assay; settings: MDA-MB-435, 48 h
MCF7 = experiment: Antiproliferative activity against human MCF7 cells assessed as reduction in cell viability after 48 hrs by SRB assay; settings: MCF7, 48 h
SNB-75 = experiment: Antiproliferative activity against human SNB75 cells assessed as reduction in cell viability after 48 hrs by SRB assay; settings: SNB-75, 48 h
UACC-62 = experiment: Antiproliferative activity against human UACC62 cells assessed as reduction in cell viability after 48 hrs by SRB assay; settings: UACC-62, 48 h, pooled result: one value given for 8 cell lines, strains, targets or settings
OVCAR-5 = experiment: Antiproliferative activity against human OVCAR5 cells assessed as reduction in cell viability after 48 hrs by SRB assay; settings: OVCAR-5, 48 h
Hs-578T = experiment: Antiproliferative activity against human Hs 578T cells assessed as reduction in cell viability after 48 hrs by SRB assay
ACHN = experiment: Antiproliferative activity against human ACHN cells assessed as reduction in cell viability after 48 hrs by SRB assay
HT-29 = experiment: Antiproliferative activity against human HT-29 cells assessed as reduction in cell viability after 48 hrs by SRB assay; settings: HT-29, 48 h
OVCAR-4 = experiment: Antiproliferative activity against human OVCAR4 cells assessed as reduction in cell viability after 48 hrs by SRB assay; settings: OVCAR-4, 48 h
NCI-H522 = experiment: Antiproliferative activity against human NCI-H522 cells assessed as reduction in cell viability after 48 hrs by SRB assay; settings: NCI-H522, 48 h, pooled result: one value given for 8 cell lines, strains, targets or settings
HL-60(TB) = experiment: Antiproliferative activity against human HL-60(TB) cells assessed as reduction in cell viability after 48 hrs by SRB assay; settings: HL-60, 48 h
K562 = experiment: Antiproliferative activity against human K562 cells assessed as reduction in cell viability after 48 hrs by SRB assay; settings: K562, 48 h
TK-10 = experiment: Antiproliferative activity against human TK10 cells assessed as reduction in cell viability after 48 hrs by SRB assay; settings: TK-10, 48 h
T47D = experiment: Antiproliferative activity against human T47D cells assessed as reduction in cell viability after 48 hrs by SRB assay
HCC 2998 = experiment: Antiproliferative activity against human HCC2998 cells assessed as reduction in cell viability after 48 hrs by SRB assay; settings: HCC 2998, 48 h
SNB-19 = experiment: Antiproliferative activity against human SNB19 cells assessed as reduction in cell viability after 48 hrs by SRB assay; settings: SNB-19, 48 h
MOLT-4 = experiment: Antiproliferative activity against human MOLT4 cells assessed as reduction in cell viability after 48 hrs by SRB assay; settings: MOLT-4, 48 h
BT-549 = experiment: Antiproliferative activity against human BT549 cells assessed as reduction in cell viability after 48 hrs by SRB assay; settings: BT-549, 48 h
KM12 = experiment: Antiproliferative activity against human KM12 cells assessed as reduction in cell viability after 48 hrs by SRB assay; settings: KM12, 48 h
HOP-92 = experiment: Antiproliferative activity against human HOP92 cells assessed as reduction in cell viability after 48 hrs by SRB assay; settings: HOP-92, 48 h
DU-145 = experiment: Antiproliferative activity against human DU145 cells assessed as reduction in cell viability after 48 hrs by SRB assay; settings: DU-145, 48 h
PC-3 = experiment: Antiproliferative activity against human PC3 cells assessed as reduction in cell viability after 48 hrs by SRB assay; settings: PC-3, 48 h

Measured: IC50

C/C=C(\C)C(=O)O[C@H]1C=CC(=O)O[C@H]1CNC(=O)[C@H](C)O
28 µM: UACC-62
30 µM: 786-0 | RXF 393 | UO-31 | CAKI-1 | SN12C | A498 | ACHN | TK-10
25 µM: SW-620 | HCT-116 | HCT-15 | COLO 205 | HT-29 | HCC 2998 | KM12 | DU-145 | PC-3
27 µM: NCI-H522
2 to 49 µM: all other assays above

C/C=C(\C)C(=O)O[C@H]1C=CC(=O)O[C@H]1CCC(=O)[C@H](C)O
18 µM: SW-620 | HCT-116 | HCT-15 | COLO 205 | HT-29 | HCC 2998 | KM12
26 µM: NCI-H522
23 µM: DU-145 | PC-3
24 µM: UACC-62
20 µM: MDA-MB-231 | NCI/ADR-RES | MDA-MB-435 | MCF7 | Hs-578T | T47D
2 to 49 µM: all other assays above

C/C=C(\C)C(=O)O[C@H]1C=CC(=O)O[C@H]1COC(=O)[C@H](C)O
19 µM: NCI-H522
15 µM: 786-0 | RXF 393 | UO-31 | CAKI-1 | SN12C | A498 | ACHN | TK-10
11 µM: SW-620 | HCT-116 | HCT-15 | COLO 205 | HT-29 | HCC 2998 | KM12
2 to 49 µM: MDA-MB-468 | CCRF-CEM | RPMI-8226 | SR | HL-60(TB) | K562 | MOLT-4 | BT-549 | HOP-92
13 µM: UACC-62
12 µM: MDA-MB-231 | NCI/ADR-RES | MDA-MB-435 | MCF7 | Hs-578T | T47D
16 µM: all other assays above

C/C=C(\C)C(=O)O[C@H]1C=CC(=O)O[C@H]1CC[C@H](O)[C@H](C)O [6,7-DIHYDROPHOMOPSOLIDE B]
18 µM: OVCAR-3 | SK-OV-3 | IGROV-1 | OVCAR-8 | OVCAR-5 | OVCAR-4 | NCI-H522 | DU-145 | PC-3
11 µM: MDA-MB-231 | NCI/ADR-RES | MDA-MB-435 | MCF7 | Hs-578T | T47D
17 µM: SF-539 | U-251 | SF-295 | SF-268 | SNB-75 | SNB-19
2 to 49 µM: all other assays above
